Assay results published in patent publication US9161930B2, “Pharmaceutical composition for diabetic nephropathy and its preparation and application” (Guangzhou Consun Medicine R & D Co., Ltd., priority 2009, dated 2015).

Experiments:
[1] = test system: CTGF; assay: CTGF expression of rat glomcrulus in model of diabetic nephropathy; assay type: in vivo, Wistar rat; details: 14 weeks, STZ rat
Method: (§1) Model by administrating of low dose STZ for several times and determinate as the model rat of diabetic nephropathy, divide into 6 groups with 10 mice/group: model group, positive drug control group (aminoguanidine, 100 mg/kg), water extract of Cortex Mori group, 3 different concentration doses of DPMC group (high dose group: 4 mg/kg; middle dose group: 2 mg/kg; low dose: 1 mg/kg), normal control group.
(§2) Each group is given the same volume corresponding drug in different concentration or physiological saline everyday by intragastric administration for 14 weeks.
(§3) Collect the 24 hour urine after administration is over, calculate the urine volume and determinate the content of total protein of urine, micro-albumen and urine creatinine; obtain blood by eye sockets and determinate the biochemical indicator with automatic biochemistry analyzer; take out of the double kidneys, fix with formalin and remain to histopathologic examination.
(§4) Statistical analysis of all determinations is calculated by interclass t-test and expressed as x±s.

[2] = test system: STZ diabetic nephropathy model rat; assay: Pathohistology (pathology score) of rat glomcrulus in model of diabetic nephropathy; assay type: in vivo, Wistar rat; details: 14 weeks
Method: as §1, §2, §3, §4

[3] = test system: STZ diabetic nephropathy model rat; assay: 24 hour urine indicators in rat model of diabetic nephropathy induced by STZ; assay type: in vivo, Wistar rat; details: 14 weeks; for Total protein (mg) of urine / micro-albumen / urine creatinine: 24 hour urine
Method: as §1, §2, §3, §4

[4] = test system: STZ diabetic nephropathy model rat; assay: Serum biochemical indicators in rat of diabetic nephropathy (STZ); assay type: in vivo, Wistar rat; details: 14 weeks
Method: as §1, §2, §3, §4

[5] = test system: TGFβ-1; assay: TGFβ-1 expression of rat mesangial cells induced by AGEs (immunocytochemistry staining); assay type: cell-based; details: 48 h, FIG. 1
Method: Put the coverslips pre-treated by poly-L-lysine into 24-well cell culture plates, in order to make the HBZY-1 cells grow on until synchronization. Discard of the supernatant, add 800 μl DMEM medium, 100 μl AGEs (final concentration is 0.25 mg/ml) in each medicine group, then add 100 μl water extract of Cortex Mori (final concentration is 0.1 g/L) or DPMC (final concentration is 0.5, 5, 25 or 125 nM/L). The normal control group is added 1 ml DEME medium when the AGEs group is added 900 μl DMEM medium and 100 μl AGEs (final concentration was 0.25 mg/ml). Every group repeats for 6 times. Then, all the groups are incubated under 5% CO2 incubator at 37° C. for 48 h. Take suction of the cell supernatant for the content determination of hydroxyproline after the cells completely covered the coverslips and take out of the coverslips for immunocytochemistry staining. […]

[6] = test system: Rat messangial cell line HBZY-1; assay: Hydroxyproline content in supernatant of rat mesangial cells induced by AGEs; assay type: cell-based; details: AGEs 0.25 mg/ml, 48 h, supernatant of HBZY-1 cells
Method: Dissolved the 5% bovine serum albumin (BSA) without globulin and 0.5 mol/L D-amylaceum in 0.2 mol/L phosphate buffered solution (PBS, PH=7.2), filtrated with 0.24 μm micropore film and incubated under 37° C. for 60 days. After the incubation of the advanced glycation end products (AGEs) were finished, the umcombinated material was cleaned by extend dialyse method. Diluted to a necessary concentration and filtrated with 0.22 μm micropore film.
Prepare of unicell suspension with HBZY-1 cells in log phase growth and DMEM medium with 5% newborn calf serum, take 100 μl/well (cell quantities: 1×10^4/well) to the 96-well plate, incubated under 5% CO2 incubator at 37° C. for 24 hours, change with 100 μl the DMEM without serum and incubate another 24 hours to make the cells to anestrum (synchronization). Discard of the supernatant, add 90 μl DMEM medium with 5% newborn calf serum and 10 μl the different concentration of AGEs by gradient dilution with 6 repeat per group, incubate by gradient time, respectively, determinate the proliferation degree of rat mesangial cells by MTT.
Put the coverslips pre-treated by poly-L-lysine into 24-well cell culture plates, in order to make the HBZY-1 cells grow on until synchronization. Discard of the supernatant, add 800 μl DMEM medium, 100 μl AGEs (final concentration is 0.25 mg/ml) in each medicine group, then add 100 μl water extract of Cortex Mori (final concentration is 0.1 g/L) or DPMC (final concentration is 0.5, 5, 25 or 125 nM/L). The normal control group is added 1 ml DEME medium when the AGEs group is added 900 μl DMEM medium and 100 μl AGEs (final concentration was 0.25 mg/ml). Every group repeats for 6 times. Then, all the groups are incubated under 5% CO2 incubator at 37° C. for 48 h. Take suction of the cell supernatant for the content determination of hydroxyproline after the cells completely covered the coverslips and take out of the coverslips for immunocytochemistry staining.
Determinate the hydroxyproline content in cultured fluid of rat mesangial cells and express as x±s, analyze by t-test; observate the TGFβ-1 expression in immunohistochemistry photo of rat mesangial cells under microscope.

[7] = 100 mg/kg intragastric everyday

With `COC(=O)Nc1ccc(Cc2ccc(NC(=O)OC)cc2)cc1` [DPMC, 4,4′-diphenylmethane-bis(methyl) carbamates] the “CTGF(%)” value ([1]; 1 mg/kg intragastric everyday) was 7.1 ± 1.6 %, the “CTGF(%)” value ([1]; 2 mg/kg intragastric everyday) was 6.4 ± 2.7 % and the “CTGF(%)” value ([1]; 4 mg/kg intragastric everyday) was 6.0 ± 3.1 %. For the same molecule, the Pathology score ([2]; 1 mg/kg intragastric everyday) was 2.7 ± 1.0, the Pathology score ([2]; 2 mg/kg intragastric everyday) was 1.8 ± 1.3 and the Pathology score ([2]; 4 mg/kg intragastric everyday) was 1.2 ± 1.1. The “Urine V (24 hr, ml)” value ([3]; 1 mg/kg intragastric everyday) was 59.9 ± 21.8 mL, the “Total protein (mg) of urine” value ([3]; 1 mg/kg intragastric everyday) was 69.1 ± 20.4 mg and the “micro-albumen” value ([3]; 1 mg/kg intragastric everyday) was 1.57 ± 0.56 mg. The “urine creatinine” value ([3]; 1 mg/kg intragastric everyday) was 1.4 ± 0.6 mmol/L, the “Urine V (24 hr, ml)” value ([3]; 2 mg/kg intragastric everyday) was 41.3 ± 16.4 mL and the “Total protein (mg) of urine” value ([3]; 2 mg/kg intragastric everyday) was 54.0 ± 17.4 mg. The “micro-albumen” value ([3]; 2 mg/kg intragastric everyday) was 0.93 ± 0.55 mg, the “urine creatinine” value ([3]; 2 mg/kg intragastric everyday) was 2.9 ± 1.2 mmol/L and the “Urine V (24 hr, ml)” value ([3]; 4 mg/kg intragastric everyday) was 33.9 ± 22.2 mL. The “Total protein (mg) of urine” value ([3]; 4 mg/kg intragastric everyday) was 46.2 ± 21.6 mg, the “micro-albumen” value ([3]; 4 mg/kg intragastric everyday) was 0.92 ± 0.42 mg and the “urine creatinine” value ([3]; 4 mg/kg intragastric everyday) was 4.3 ± 2.0 mmol/L. The AGEs ([4]; 1 mg/kg intragastric everyday) was 290 ± 59, the “BUN” value ([4]; 1 mg/kg intragastric everyday) was 7.0 ± 1.0 mmol/L and the “LDL” value ([4]; 1 mg/kg intragastric everyday) was 1.91 ± 0.55 mmol/L. The “MDA” value ([4]; 1 mg/kg intragastric everyday) was 7.8 ± 2.3 nmol/L, the “SC (umol/L), serum creatinine” value ([4]; 1 mg/kg intragastric everyday) was 91.0 ± 31.1 µmol/L and the “SOD (U/ml)” value ([4]; 1 mg/kg intragastric everyday) was 498 ± 33 U/ml. The “TG” value ([4]; 1 mg/kg intragastric everyday) was 3.23 ± 0.76 mmol/L, the AGEs ([4]; 2 mg/kg intragastric everyday) was 289 ± 56 and the “BUN” value ([4]; 2 mg/kg intragastric everyday) was 6.6 ± 1.2 mmol/L. For the same molecule, the “LDL” value ([4]; 2 mg/kg intragastric everyday) was 1.51 ± 0.53 mmol/L, the “MDA” value ([4]; 2 mg/kg intragastric everyday) was 6.8 ± 1.9 nmol/L and the “SC (umol/L), serum creatinine” value ([4]; 2 mg/kg intragastric everyday) was 76.6 ± 24.5 µmol/L. For the same molecule, the “SOD (U/ml)” value ([4]; 2 mg/kg intragastric everyday) was 513 ± 41 U/ml, the “TG” value ([4]; 2 mg/kg intragastric everyday) was 2.76 ± 0.80 mmol/L and the AGEs ([4]; 4 mg/kg intragastric everyday) was 281 ± 78. The “BUN” value ([4]; 4 mg/kg intragastric everyday) was 6.5 ± 1.5 mmol/L, the “LDL” value ([4]; 4 mg/kg intragastric everyday) was 1.43 ± 0.36 mmol/L and the “MDA” value ([4]; 4 mg/kg intragastric everyday) was 6.8 ± 1.3 nmol/L. For the same molecule, the “SC (umol/L), serum creatinine” value ([4]; 4 mg/kg intragastric everyday) was 74.0 ± 17.1 µmol/L, the “SOD (U/ml)” value ([4]; 4 mg/kg intragastric everyday) was 520 ± 29 U/ml and the “TG” value ([4]; 4 mg/kg intragastric everyday) was 2.57 ± 0.80 mmol/L. For the same molecule, the “TGFβ-1 expression of rat mesangial cells induced by AGEs” value ([5]; different doses 0.5, 5, 25, 125 nM/L) was “restrain the TGFβ-1 expression increase”, the “TGFβ-1 expression of rat mesangial cells induced by AGEs” value ([5]; large dose 125 nM/L) was “performs best” and the hydroxyproline ([6]; 0.5 nM/L) was 7.68 ± 1.10 µg/mL. The hydroxyproline ([6]; 5 nM/L) was 7.76 ± 1.21 µg/mL, the hydroxyproline ([6]; 25 nM/L) was 5.71 ± 1.18 µg/mL and the hydroxyproline ([6]; 125 nM/L) was 4.76 ± 0.58 µg/mL.

In the case of `N=C(N)NN` [aminoguanidine, reference compound], the “CTGF(%)” value [1, 7] is reported as 5.9 ± 2.2 %, the Pathology score [2, 7] is reported as 2.1 ± 1.0 and the “Urine V (24 hr, ml)” value [3, 7] is reported as 36.2 ± 21.7 mL. The “Total protein (mg) of urine” value [3, 7] was 43.2 ± 29.9 mg, the “micro-albumen” value [3, 7] was 1.00 ± 0.27 mg and the “urine creatinine” value [3, 7] was 4.0 ± 2.3 mmol/L. For the same molecule, the AGEs [4, 7] was 283 ± 78, the “BUN” value [4, 7] was 6.6 ± 0.8 mmol/L and the “LDL” value [4, 7] was 2.01 ± 0.58 mmol/L. For the same molecule, the “MDA” value [4, 7] was 5.9 ± 1.7 nmol/L, the “SC (umol/L), serum creatinine” value [4, 7] was 77.7 ± 20.3 µmol/L and the “SOD (U/ml)” value [4, 7] was 516 ± 20 U/ml. The “TG” value [4, 7] was 3.35 ± 0.87 mmol/L.
